According to patent publication US20110223131A1, “ANTIVIRAL COMPOUNDS” (Gilead Sciences, Inc., priority 2010, published 2011):
≈ marks a conversion by molar mass, not a printed value. Where “and” joins values, the source holds several entries; their conditions need not be identical. Identical values can stand only once. Like-named read-outs stand apart in the source and are kept apart here. Blank lines part the entries; values can stand above or below the molecule they belong to.

Legend:
HIV-IIIb [1] = details: MT-2 cells; as reported in WO 2010/011959; cited from earlier work
[2] = Oral bioavailability from crystalline suspension in dog (plasma PK, LC/MS/MS); format: in vivo, beagle dogs; details: for bioavailability: read-out: F (oral bioavailability)
Procedure: Oral Bioavailability-Determination of Oral Bioavailability of Integrase Inhibitors from Crystalline Suspension in Dog The in-life phase of these studies was carried out at SRI, Menlo Park, Calif. Both Compound (Ia) and Comparator Compound were formulated in 0.5% HPMC […], 0.2% Tween 20, 0.9% benzyl alcohol, and 98.4% water. Both were at 2.00 mg/mL for oral dosing. Each dosing group consisted of 3 male, beagle dogs. At dosing, the animals weighed an average of 10.9 kgs for Compound (Ia) and 10.5 kgs for Comparator Compound. The animals were fasted overnight prior to dose administration and up to 4 hr after dosing. The dogs were pre-treated with pentagastrin at 30 minutes prior to dosing by IM injection. The Compound (Ia) suspension was administered by oral gavage at 1.5 mL/kg to deliver a total dose of 3 mg/kg, while the Comparator Compound suspension was administered by oral gavage at 2 mL/kg for a dose of 4 mg/kg. Serial venous blood samples (approximately 0.8-1.0 mL each) were taken at specified time points (range t=0 to t=24 hr) after dosing from each animal. The blood samples were collected into VacutainerTM tubes containing EDTA-K3 as the anti-coagulant and were immediately placed on wet ice pending centrifugation for plasma. Dosing solutions were analyzed using un-used portions of the dosing solutions, and aliquots of approximately 1 mL of each dosing solution were saved. The concentration of compound in the dosing solution was measured with an HPLC-UV method. Comparator Compound (nominal dose of 4 mg/kg) was dosed at 9387 nmoles/kg, while Compound (Ia) (nominal dose of 3 mg/kg) was dosed at 6563-6566 nmoles/kg. An LC/MS/MS method was used to measure the concentration of test compounds in plasma. Non-compartmental pharmacokinetic analysis was performed on the plasma concentration-time data. The bioanalytical method consisted of treating 100 μL of each plasma sample with 200 μL of acetonitrile (ACN) and 200 μL acetonitrile (ACN) containing internal standard. After protein precipitation and centrifugation, 100 μL of the supernatant was transferred to a clean 96-well plate and mixed with 100 μL of water. An aliquot of 10 μL of the above solution was injected onto an API-4000 triple quadrupole LC/MS/MS system. A Hypersil Gold (#25005-053030, Thermo Electron Corporation) column was used. Mobile phase A contained water with 0.1% formic acid and 1% IPA. Mobile phase B contained acetonitrile with 0.1% formic acid and 1% IPA.

[3] = Aqueous solubility in buffers, HPLC-UV; format: physicochemical; details: aqueous buffer, thermodynamic from solid, 24 to 48 hours
Procedure: Excess solid material was added to aqueous buffers at pH 2 and pH 7 in glass vials to form suspensions. The suspension was stirred on a stirrer plate with a magnetic stirrer bar at room temperature for periods of 24 to 48 hours. The suspension was filtered through a 0.22 micron PVDF syringe filters. The clear filtrate was diluted in acetonitrile and analyzed by HPLC-UV against an external standard for the compound concentration.

[4] = Cytotoxicity (CC50) in MT-4 cells; format: cell-based; details: human
[5] = Cytotoxicity (CC50) in MT-2 cells; format: cell-based; details: human
HIV-IIIb [6] = experiment: Antiviral assay in MT-2 / MT-4 cells infected with HIV-IIIb (CellTiter-Glo readout); format: cell-based; details: Human immunodeficiency virus 1, MT4, 120 h, 5 days, cell line (MT-2 or MT-4) not printed in Table 1
Procedure: For the antiviral assay utilizing MT-2 cells, 50 μL of 2× test concentration of 5-fold serially diluted compound in culture medium with 10% FBS was added to each well of a 96-well plate (9 concentrations) in triplicate. MT-2 cells were infected with HIV-IIIb at a multiplicity of infection (m.o.i) of 0.01 for 3 hours. Fifty microliters of infected cell suspension in culture medium with 10% FBS (˜1.5×10^4 cells) was then added to each well containing 50 μL of diluted compound. The plates were then incubated at 37° C. for 5 days. For the antiviral assay utilizing MT-4 cells, 20 μL of 2× test concentration of 5-fold serially diluted compound in culture medium with 10% FBS was added to each well of a 384-well plate (7 concentrations) in triplicate. MT-4 cells were next mixed with HIV-IIIb at an m.o.i. of 0.1 and 20 μL of virus/cell mixture (˜2000 cells) was immediately added to each well containing 20 μL of diluted compound. The plates were then incubated at 37° C. for 5 days. After 5 days of incubation, 100 μL of CellTiter-Glo™ Reagent (catalog #G7571, Promega Biosciences, Inc., Madison, Wis.) was added to each well containing MT-2 cells and 40 μl to each well containing MT-4 cells. Cell lysis was carried out by incubating at room temperature for 10 min and then chemiluminescence was read.

[7] = PO 4 mg/kg suspension, dog plasma, individual dogs, 4 mg/kg
[8] = male, beagle, dog, plasma, po, 4 mg/kg, PO 4 mg/kg suspension, dog plasma, individual dogs
[9] = PO 3 mg/kg suspension, dog plasma, individual dogs, 3 mg/kg
[10] = male, beagle, dog, plasma, po, 3 mg/kg, PO 3 mg/kg suspension, dog plasma, individual dogs
[11] = male, beagle, dog, plasma, po, 3 mg/kg, PO 3 mg/kg suspension, dog plasma, mean n = 3

- Cmax [2, 7]: 58.5 nM and 16.3 nM and 11.3 nM
- Tmax [2, 7]: 2.00 h
- F (oral bioavailability) ([2]; PO 4 mg/kg suspension, dog, individual dogs, 4 mg/kg): 0.5% and 0.1% (2×)
- CL ([2]; listed in table of PO 4 mg/kg suspension, dog plasma, mean n = 3): 0.15 L/h/kg
- AUC(0-inf) ([2]; male, beagle, dog, plasma, po, 4 mg/kg, PO 4 mg/kg suspension, dog plasma, Mean column (only one dog calculable)): 0.427 µM·h
- AUC(0-inf) [2, 8]: 0.427 µM·h
- half-life [2, 8]: 2.97 h
- Tmax ([2]; male, beagle, dog, plasma, po, 4 mg/kg, PO 4 mg/kg suspension, dog plasma, individual dogs, read-out: Tmax): 4 h
- Cmax ([2]; male, beagle, dog, plasma, po, 4 mg/kg, PO 4 mg/kg suspension, dog plasma, mean n = 3): 28.7 ± 25.9 nM
- AUC(0-t) ([2]; male, beagle, dog, plasma, po, 4 mg/kg, PO 4 mg/kg suspension, dog plasma, mean n = 3, read-out: AUClast (AUC0-t)): 0.177 ± 0.181 µM·h
- Tmax ([2]; male, beagle, dog, plasma, po, 4 mg/kg, PO 4 mg/kg suspension, dog plasma, mean n = 3, read-out: Tmax): 2.67 h
- bioavailability ([2]; male, beagle, dog, plasma, po, 4 mg/kg, PO 4 mg/kg suspension, pentagastrin pretreated dogs, mean n = 3): 0.2%
- solubility ([3]; pH 2.2, room temperature): 1 µg/mL (≈ 2.35 µM)
- solubility ([3]; pH 7.3, room temperature): 1 µg/mL (≈ 2.35 µM)
Structure (SMILES): CNC(=O)c1c(O)c2ncc(Cc3ccc(F)cc3)c3c2n(c1=O)C[C@H](C(=O)NC)O3 [Comparator Compound, reference compound]
- EC50 (HIV-IIIb [1]): 6.8 nM
- AUClast [2, 7]: 0.385 µM·h and 0.0898 µM·h and 0.0552 µM·h
- CL ([2]; listed in table of PO 4 mg/kg suspension, dog plasma, individual dogs, 4 mg/kg): 0.13 L/h/kg and 0.14 L/h/kg and 0.19 L/h/kg

- EC50 (HIV-IIIb [6]): 3.4 nM
- AUCinf [2, 9]: 14.413 µM·h and 21.913 µM·h
- AUClast [2, 9]: 14.199 µM·h and 21.762 µM·h
- Cmax [2, 9]: 2500 nM and 4240 nM
- Tmax [2, 9]: 2.00 h
- t1/2 [2, 9]: 4.88 h and 3.64 h
- F (oral bioavailability) ([2]; PO 3 mg/kg suspension, dog, individual dogs, 3 mg/kg): 35.0% and 53.6%
- F (oral bioavailability) ([2]; PO 3 mg/kg suspension, pentagastrin pretreated dogs, mean n = 3): 45.2%
- CL ([2]; listed in table of PO 3 mg/kg suspension, dog plasma, individual dogs, 3 mg/kg): 0.17 L/hr/kg (2×) and 0.15 L/hr/kg
- CL ([2]; listed in table of PO 3 mg/kg suspension, dog plasma, mean n = 3): 0.16 L/h/kg
- AUC(0-inf) [2, 10]: 19.3 µM·h
- Cmax [2, 10]: 3160 nM
- half-life [2, 10]: 4.16 h
- AUC(0-t) ([2]; male, beagle, dog, plasma, po, 3 mg/kg, PO 3 mg/kg suspension, dog plasma, individual dogs, read-out: AUClast): 19.1 µM·h
- Tmax ([2]; male, beagle, dog, plasma, po, 3 mg/kg, PO 3 mg/kg suspension, dog plasma, individual dogs, read-out: Tmax): 1 h
- AUC(0-inf) [2, 11]: 18.6 µM·h
- Cmax [2, 11]: 3300 ± 878 nM
- half-life [2, 11]: 4.22 h
- AUC(0-t) ([2]; male, beagle, dog, plasma, po, 3 mg/kg, PO 3 mg/kg suspension, dog plasma, mean n = 3, read-out: AUClast): 18.3 µM·h
- Tmax ([2]; male, beagle, dog, plasma, po, 3 mg/kg, PO 3 mg/kg suspension, dog plasma, mean n = 3, read-out: Tmax): ~1.33 h
- bioavailability ([2]; male, beagle, dog, plasma, po, 3 mg/kg, PO 3 mg/kg suspension, dog, individual dogs): 47%
- bioavailability ([2]; male, beagle, dog, plasma, po, 3 mg/kg, PO 3 mg/kg suspension, pentagastrin pretreated dogs, mean n = 3): 45%
- solubility ([3]; pH 2.2, room temperature): 29.4 µg/mL (≈ 63.2 µM)
- solubility ([3]; pH 7.3, room temperature): 31.6 µg/mL (≈ 67.9 µM)
Structure (SMILES): CNC(=O)c1c(O)c2ncc(Cc3ccc(F)cc3)c3c2n(c1=O)C[C@](C)(c1nnc(C)o1)O3 [Compound (Ia)]
- CC50 at 5 days [4]: 42000 nM
- CC50 at 5 days [5]: 5300 nM
